# Reference: US6095147A, “Method for photo-altering a biological system to improve biological effect” (The Regents of the University of California, priority 1994, dated 2000)
# What was measured:
# [1] = Noninvasive laser fluorescence (HeCd) measurement of SnET2 uptake and distribution in ocular tissues after subconjunctival injection; format: in vivo, rabbit; conditions: for Axis Fluorescence Ratio (670 nm/570 nm) / Conjunctiva Fluorescence Ratio (670 nm/570 nm) / Iris Fluorescence Ratio (670 nm/570 nm) / Ratio of Fluorescence (Conjuctiva/Axis) / Ratio of Fluorescence (Conjuctiva/Iris): 3 hr
# Description: (§1) Pharmacokinetics of the photosensitive agent or tin ethyl-etiopurpurin (SnET2) were studied after subconjunctival injections (0,25,50,75 ug; 11 rabbits). Noninvasive measurements were made at 0, 0.5, 1, 2, 3 and 4 hr postinjection using a HeCd based laser fluorescence diagnostic system (excitation-442 nm; detection-670 nm SnET2 fluorescence; tissue autofluorescense-570 nm). SnET2 uptake was determined by an elevated 670/570 nm ratio. Preoperative injections (0, 25, 50 and 75 ug; 8 rabbits) of SnET2 were given and posterior lip sclerectomies were performed after 3-4 hrs followed by post operative laser irradiation (665 nm; 100 mW/cm^2; 30 J/cm^2). […] Self absorption of the fluorescence was present in the higher doses for the conjunctiva. Fluorescence ratios (T=3 hr) were as follows. The fluorescence ratios are shown below in Table 2. The tissue ratios were: conjunctiva/iris: 0 (control)=1.2; 25 ug=63+/-17; 50 ug=54+/-31; 75 ug=4+/-1.2. Conjunctiva/optical axis: 0 (control)=1.4; 25 ug=109+/-37; 50 ug=78+/-10; 75 ug=11+/-2.5.
# Noninvasive fluorescent measurements, using a HeCd laser, was made of the SnET2 to determine its uptake and distribution. Exposure of SnET2 with a HeCd laser, excites the tissue at 442 nanometers and detects 670 nanometer florescence for SnET2 and 570 nanometer for tissue autofluorescence. The higher the ratio (670 nm/570 nm), the higher the uptake. Measurements in the conjunctiva compared to the iris and of the conjunctiva as compared to the axis of the eye, namely the pupil, were compared three hours after injection. […] In this case the self-absorption of the 670 nm fluorescence by the SnET2 at such a high local concentration causes the intensity to actually decrease. […] This is also due to self-absorption. Note that for the iris and axis readings the signal does continue to increase with increasing injected dose due to the greater leakage into these areas of the eye with the higher injected doses. This is a negative, unwanted effect and is why the ratios of the conjuntiva/iris and conjuntiva/axis ratios decrease in Table 3. […] The decreased tissue ratios at the higher photosensitizer injection doses indicate lower specificity due to greater leakage from the injection site.
# conjunctiva = assay: Posterior lip sclerectomy (filtration surgery) with preoperative SnET2 injection and postoperative laser irradiation; format: in vivo, rabbit; conditions: 665 nm, 100 mW/cm^2
# Description: as §1
# Some of the animals of the group shown in Table 2 and 3 were treated with 665 nanometers laser light at 100 milliwatt per square centimeter (30 Joules per square centimeter) exposure with 8 millimeter diameter spot three to four hours after the injection of the SnET2 following filtering surgery in the eye.
# [2] = 25 μg subconjunctival, 3 animals
# [3] = 50 μg subconjunctival, 3 animals
# [4] = 75 μg subconjunctival, 5 animals
compound,measurement,setting,value
"CCOC(=O)C1=Cc2c3nc(cc4nc(cc5[n-]c(cc6[n-]c2c(C)c6CC)c(C)c5CC)C(C)=C4CC)[C@@H](C)[C@]13CC.[Cl-].[Cl-].[Sn] (racemic) [SnET2, tin ethyl-etiopurpurin]",Axis Fluorescence Ratio (670 nm/570 nm),[1]; [2],0.26 +/- 0.03
same,Conjunctiva Fluorescence Ratio (670 nm/570 nm),[1]; [2],28.27 +/- 10.90
same,Iris Fluorescence Ratio (670 nm/570 nm),[1]; [2],0.44 +/- 0.08
same,Ratio of Fluorescence (Conjuctiva/Axis),[1]; [2],109+/-37
same,Ratio of Fluorescence (Conjuctiva/Iris),[1]; [2],63+/-17
same,Axis Fluorescence Ratio (670 nm/570 nm),[1]; [3],0.37 +/- 0.05
same,Conjunctiva Fluorescence Ratio (670 nm/570 nm),[1]; [3],31.70 +/- 8.60
same,Iris Fluorescence Ratio (670 nm/570 nm),[1]; [3],0.65 +/- 0.21
same,Ratio of Fluorescence (Conjuctiva/Axis),[1]; [3],78+/-10
same,Ratio of Fluorescence (Conjuctiva/Iris),[1]; [3],54+/-31
same,Axis Fluorescence Ratio (670 nm/570 nm),[1]; [4],1.30 +/- 0.90
same,Iris Fluorescence Ratio (670 nm/570 nm),[1]; [4],4.72 +/- 4.94
same,Ratio of Fluorescence (Conjuctiva/Axis),[1]; [4],11 +/- 2.5
same,Ratio of Fluorescence (Conjuctiva/Iris),[1]; [4],4 +/- 1.2
same,Conjunctiva Fluorescence Ratio (670 nm/570 nm),"[1]; 75 μg subconjunctival, 5 animals, self-absorption of fluorescence",15.14 +/- 13.60
same,levels in the iris and optical axis,[1]; subconjunctival injection,"small, but detectable levels"
same,time of peak conjunctival fluorescence post injection,[1]; subconjunctival injection,3 h
same,uptake and retention at the injection site (conjunctiva),[1]; subconjunctival injection,"preferentially taken up and preferentially remains in the area of the injection, namely the conjunctiva"
same,overall effect of photodynamic therapy on conjunctiva,conjunctiva; 30 J/cm^2,"titratable, localized, transient, post operative avascular conjunctiva"
same,"avascular conjunctiva, post operative","conjunctiva; SnET2 25, 50, 75 ug, 30 J/cm^2, 3-4 hrs after injection",large transient areas of avascular conjunctiva were produced
same,limitation of avascular areas to filtering blebs,"conjunctiva; at 4 weeks, 30 J/cm^2",limitation of avascular areas to filtering blebs at 4 weeks
